Measured values reported in patent publication US20040242459A1 (priority 2001, published 2004).
Values joined by “and” are separate entries in the source; they are usually repeats but may differ in a detail not shown here. Equal entries are not always repeated. Marks after values point to notes of the source that are not given here.

Columns and labels:
[1] = target: T1, hPPARγ/GAL4 (Homo sapiens, UniProt P37231); experiment: Gal-4 hPPAR transactivation assay in COS-1 cells (gamma); format: cell-based; conditions: two values separated by a slash in some cells
T1 construct: expressed in transfected cells; host or cells: COS-1 cells
T1 sequence (P37231 238-503 limits assumed): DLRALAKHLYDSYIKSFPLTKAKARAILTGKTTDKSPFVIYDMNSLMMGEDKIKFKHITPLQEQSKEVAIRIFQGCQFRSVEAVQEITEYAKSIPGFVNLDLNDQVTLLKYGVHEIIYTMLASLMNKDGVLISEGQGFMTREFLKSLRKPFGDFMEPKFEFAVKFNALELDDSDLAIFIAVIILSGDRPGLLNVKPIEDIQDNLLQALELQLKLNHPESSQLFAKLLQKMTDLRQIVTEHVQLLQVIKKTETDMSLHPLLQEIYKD
T1 sequence (P04386 1-147 partner limits assumed): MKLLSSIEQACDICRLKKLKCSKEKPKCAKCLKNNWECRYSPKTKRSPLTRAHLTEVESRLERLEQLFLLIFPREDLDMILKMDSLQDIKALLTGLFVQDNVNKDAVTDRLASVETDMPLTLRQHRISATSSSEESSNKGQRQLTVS
Procedure: (§1) The chimeric receptor expression constructs, pcDNA3-hPPARγ/GAL4, pcDNA3-hPPARδ/GAL4, pcDNA3-hPPARα/GAL4 were prepared by inserting the yeast GAL4 transcription factor DBD adjacent to the ligand binding domains (LBDs) of hPPARγ, hPPARδ, hPPARα, respectively. The reporter construct, pUAS(5×)-tk-luc was generated by inserting 5 copies of the GAL4 response element upstream of the herpes virus minimal thymidine kinase promoter and the luciferase reporter gene. pCMV-lacZ contains the galactosidase Z gene under the regulation of the cytomegalovirus promoter. COS-1 cells were seeded at 12×10^3 cells/well in 96 well cell culture plates in high glucose Dulbecco's modified Eagle medium (DMEM) containing 10% charcoal stripped fetal calf serum (Gemini Bio-Products, Calabasas, Calif.), nonessential amino acids, 100 units/ml Penicillin G and […] Streptomycin sulfate at 37° C. in a humidified atmosphere of 10% CO2. After 24 h, transfections were performed with Lipofectamine (GIBCO BRL, Gaithersburg, Md.) according to the instructions of the manufacturer. […] Luciferase activity in cell extracts was determined using Luciferase Assay Buffer (Promega, Madison, Wis.) in an ML3000 luminometer (Dynatech Laboratories, Chantilly, Va.). β-galactosidase activity was determined using β-D-galactopyranoside (Calbiochem, San Diego, Calif.).

[2] = target: T2, hPPARα/GAL4 (Homo sapiens, UniProt Q07869); experiment: Gal-4 hPPAR transactivation assay in COS-1 cells (alpha); format: cell-based; conditions: two values separated by a slash in some cells
T2 construct: expressed in transfected cells; host or cells: COS-1 cells
T2 sequence (Q07869 239-466 limits assumed): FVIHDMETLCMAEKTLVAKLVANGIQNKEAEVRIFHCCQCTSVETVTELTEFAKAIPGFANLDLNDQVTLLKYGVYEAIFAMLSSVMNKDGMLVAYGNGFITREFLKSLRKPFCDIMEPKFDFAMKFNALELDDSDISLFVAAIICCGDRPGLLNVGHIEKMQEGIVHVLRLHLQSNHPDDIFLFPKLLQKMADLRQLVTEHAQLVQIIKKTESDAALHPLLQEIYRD
T2 sequence (P04386 1-147 partner limits assumed): as the sequence (P04386 1-147 partner limits assumed) above
Procedure: as §1

[3] = test system: adjuvant-induced arthritis in female Lewis rats
Procedure: Nine groups of 10 rats each were injected with an emulsion containing 0.5 mg of Mycobacterium butyricum in 0.1 ml of light mineral oil, and a negative control group of 10 rats was not injected with adjuvant. Body weights, primary (injected) and contralateral (non-injected) paw volumes (determined by mercury displacement plethysmography) and lateral radiographs (obtained under Ketamine and Xylazine anesthesia) were determined before (day-1) and at various time points including 21 days following adjuvant injection. The rats were anesthetized with an intramuscular injection of 0.03-0.1 ml of a combination of Ketamine (87 mg/kg) and Xylazine (13 mg/kg) for radiographs and injection of adjuvant. Lateral to medial radiographs were made of both hind paws on days 0 and 21 for using the Faxitron (45 kVp, 30 seconds or 45 kVp, 1 second) and Kodak X-OMAT TL film, and were developed in an automatic processor. […] Specific criteria were used to establish the numerical grade of severity for each radiographic change. The maximum possible score per foot was 26. Compounds or vehicle were administered prophylactically beginning post injection of adjuvant and continuing for 21 days. The Compounds were prepared weekly, refrigerated in the dark until used, and vortex mixed immediately prior to administration. […] The liver, thymus and spleens of all rats were removed and weighed and both hind paws were removed and radiographed.
Two-factor (‘treatment’ and ‘time’) analysis of variance with repeated measures on ‘time’ were applied to the percent changes for body weight and foot volumes and to the rank-transformed radiographic total scores. A post hoc Dunnett's test was conducted to compare the effect of treatments to vehicle. A one-way analysis of variance was applied to the thymic and spleen weights followed by the Dunnett's test to compare the effect of treatments to vehicle.
Compounds or vehicle (0.5% Methocel in sterile water) were administered by oral gavage once daily for 21 days following induction of arthritis in female Lewis rats via the sub plantar injection of 0.1 ml of light mineral oil containing 0.5 mg of Mycobacterium butyricum. Control animals were not injected with adjuvant. Body weights were measured 1 day prior to (i.e. day 0) and at 14 and 21 days post induction of arthritis. The data in Table 1 represent the mean increase or decrease in body weight ±1 standard deviation for groups of 9 to 10 animals.
Compounds or vehicle (0.5% Methocel in sterile water) were administered by oral gavage once daily for 21 days following induction of arthritis in female Lewis rats via the sub plantar injection of 0.1 ml of light mineral oil containing 0.5 mg of Mycobacterium butyricum. Control animals were not injected with adjuvant.
(§2) Injected foot volumes were measured by mercury displacement plethysmography prior to induction of arthritis, and on days 4, 14 and 21 post induction of arthritis. The data represent the mean increase in foot volume ±1 standard deviation for groups of 9 to 10 animals. The extent of paw swelling in compound-treated animals was compared to the mean of that in the vehicle-treated group, and percentage inhibition was calculated for each dose level of compound.
as §2, with “Contralateral foot” for “Injected foot”, “prior to,” for “prior to induction of arthritis,”, “and at” for “and on”, “days” for “days 4,”
[…] Data represent the mean weights of organs in mg ±1 standard deviation for groups of 9 to 10 animals.
Total radiographic scores were derived from examination of lateral radiographs obtained prior to, and on day 21 post induction of arthritis.

[4] = target: T3, hPPARδ/GAL4 (Homo sapiens, UniProt Q03181); experiment: Gal-4 hPPAR transactivation assay in COS-1 cells (delta); format: cell-based; conditions: two values separated by a slash in some cells
T3 construct: expressed in transfected cells; host or cells: COS-1 cells
T3 sequence (Q03181 211-439 limits assumed): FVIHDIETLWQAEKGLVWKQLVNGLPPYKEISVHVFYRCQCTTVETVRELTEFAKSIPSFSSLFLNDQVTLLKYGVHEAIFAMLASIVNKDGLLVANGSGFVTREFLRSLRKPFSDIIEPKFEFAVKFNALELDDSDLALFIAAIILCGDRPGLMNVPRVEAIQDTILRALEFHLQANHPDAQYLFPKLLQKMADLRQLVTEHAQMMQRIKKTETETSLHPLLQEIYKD
T3 sequence (P04386 1-147 partner limits assumed): as the sequence (P04386 1-147 partner limits assumed) above
Procedure: as §1

[5] = injected paw, same doses p.o. q.d.
[6] = weight at necropsy, day of euthanasia 21 (Compound 1, indomethacin) or 15 (Compounds 2-6), mean ± SD

EC50 [1]: 0.18 µM and 0.05 µM
EC50 [2]: 1.05 µM and 1.2 µM
EC50 [4]: 3 µM
Structure (SMILES): CCCc1cc(Oc2ccccc2)ccc1OCCc1cc2cc(CC(=O)O)ccc2[nH]1 [Compound 2, {2-[2-(4-phenoxy-2-propylphenoxy)ethyl]-1H-indol-5-yl}acetic acid]
Change in Secondary Foot Volume Day 14-0 ([3]; contralateral paw, p.o. q.d., Compounds 1, 2, 4, 6 30 mg/kg/day, Compound 3 50, Compound 5 100, indomethacin 2, mean ± SD): 786 ± 220 µL
Secondary Foot Volume % Inhibition Compared to Vehicle Day 14-0 ([3]; contralateral paw, same doses p.o. q.d.): 0%
Change in Primary Foot Volume Day 4-0 ([3]; injected paw, p.o. q.d., Compounds 1, 2, 4, 6 30 mg/kg/day, Compound 3 50, Compound 5 100, indomethacin 2, mean ± SD): 1642 ± 386 µL
Primary Foot Volume % Inhibition Compared to Vehicle Day 4-0 [3, 5]: 18.6%
Primary Foot Volume % Inhibition Compared to Vehicle Day 14-0 [3, 5]: 21.3%
Change in Primary Foot Volume Day 14-0 ([3]; injected paw, same doses p.o. q.d., mean ± SD): 1875 ± 418 µL
change in body weight Day 14-0 ([3]; p.o. q.d., Compounds 1, 2, 4, 6 30 mg/kg/day, Compound 3 50, Compound 5 100, indomethacin 2 mg/kg/day, mean ± SD): 0.8 ± 7.3**^++ grams
prevention of swelling of primary or secondary paws ([3]; up to day 14, rats then euthanized): failed to prevent swelling of either the primary or secondary paws
Spleen [3, 6]: 590.8 ± 82.1 mg
Thymus [3, 6]: 168.7 ± 44.6 mg
